Assay results taken from the supplement of paper PMC13380429.

Key:
Details in all cases: 72 h
Caco-2 [1] = assay: cell viability relative to DMSO; higher = less toxic
HepG2 [2] = assay: as above
U2OS [3] = assay: as above
Vero E6 [4] = assay: as above
Caco-2 [5] = assay: relative viability EC50 (midpoint between 100% and the lowest measured viability); higher = less toxic
HepG2 [6] = assay: as above
U2OS [7] = assay: as above
Vero E6 [8] = assay: as above
Caco-2 [9] = assay: drug sensitivity score (DSS) for viability; higher = more toxic; extreme values may be limits of the assay
HepG2 [10] = assay: as above
U2OS [11] = assay: as above
Vero E6 [12] = assay: as above
Calu-3 [13] = assay: cell viability relative to DMSO; higher = less toxic
Calu-3 [14] = assay: drug sensitivity score (DSS) for viability; higher = more toxic; extreme values may be limits of the assay
Calu-3 [15] = assay: relative viability EC50 (midpoint between 100% and the lowest measured viability); higher = less toxic

Row | SMILES | cell viability (Caco-2 [1]; 1 nM) | cell viability (Caco-2 [1]; 10 nM) | cell viability (Caco-2 [1]; 100 nM) | cell viability (Caco-2 [1]; 1000 nM) | cell viability (Caco-2 [1]; 10000 nM) | cell viability (HepG2 [2]; 1 nM) | cell viability (HepG2 [2]; 10 nM) | cell viability (HepG2 [2]; 100 nM) | cell viability (HepG2 [2]; 1000 nM) | cell viability (HepG2 [2]; 10000 nM) | cell viability (U2OS [3]; 1 nM) | cell viability (U2OS [3]; 10 nM) | cell viability (U2OS [3]; 100 nM) | cell viability (U2OS [3]; 1000 nM) | cell viability (U2OS [3]; 10000 nM) | cell viability (Vero E6 [4]; 1 nM) | cell viability (Vero E6 [4]; 10 nM) | cell viability (Vero E6 [4]; 100 nM) | cell viability (Vero E6 [4]; 1000 nM) | cell viability (Vero E6 [4]; 10000 nM) | relative viability EC50 (Caco-2 [5]) | relative viability EC50 (HepG2 [6]) | relative viability EC50 (U2OS [7]) | relative viability EC50 (Vero E6 [8]) | drug sensitivity score (Caco-2 [9]) | drug sensitivity score (HepG2 [10]) | drug sensitivity score (U2OS [11]) | drug sensitivity score (Vero E6 [12]) | cell viability (Calu-3 [13]; 1 nM) | cell viability (Calu-3 [13]; 10 nM) | cell viability (Calu-3 [13]; 100 nM) | cell viability (Calu-3 [13]; 1000 nM) | cell viability (Calu-3 [13]; 10000 nM) | drug sensitivity score (Calu-3 [14]) | relative viability EC50 (Calu-3 [15])
1 | C/C(=N\NC(=O)[C@@H]1C(=O)NC[C@H]1c1ccccc1)c1cccc(Br)c1 | 102% | 97.5% | 104% | 96% | 101% | 99.4% | 99.8% | 101% | 103% | 92.4% | 99.9% | 100% | 103% | 94.1% | 97.5% | 96.3% | 97.9% | 94% | 98.2% | 96.4% | > 10 µM | > 10 µM | > 10 µM | > 10 µM | 0 | 0 | 0 | 0 |  |  |  |  |  |  | 
2 | [O-][S+](c1ccccc1)c1ccc2nnnn2n1 (stereo not given) [Ro-106-9920] | 89.7% | 92.3% | 92.1% | 95.4% | 39.5% | 106% | 102% | 110% | 98.1% | 1.1% | 99.9% | 103% | 95% | 95.9% | 2.5% | 97.7% | 95.6% | 95.9% | 90.5% | 12.1% | 2.54 µM | 3.03 µM | 2.84 µM | 2.28 µM | 4 | 5.8 | 6 | 6.4 | 96.3% | 94.9% | 105% | 98.8% | 63.7% | 1.9 | 
3 | FC(F)(F)c1ccccc1-n1ccnc1 [TRIM] | 106% | 104% | 98.6% | 93.5% | 108% | 96.7% | 110% | 108% | 103% | 89.5% | 99.6% | 97.8% | 103% | 95.7% | 103% |  |  |  |  |  | > 10 µM | > 10 µM | > 10 µM |  | 0 | 0 | 0 |  | 98.7% | 99.5% | 92.6% | 97% | 97.2% | 0 | > 10 µM
